pIC50: −log10 of the molar value.
Tested on: UC11-MG human astrocytoma cells
Experiment: D-aspartate (excitotoxin) release by hypo-osmotically stressed astrocytoma cells
Assay type: cell-based
Excerpt: The in vitro tests described in this example used UC11-MG human astrocytoma cells, obtained from the University of Cincinnati, and described in Liwnicz et al 1986 and Lomneth et al 1989. Cell culture reagents (including RPMI 1640, fetal bovine serum, trypsin, and gentamicin) were obtained from Gibco (Gaithersburg, Md.). Radiolabelled D-[2,3-^3 H]aspartate was obtained from Amersham Life Sciences (Buckinghamshire, England). ScintiVerse II scintillation fluid was obtained from Fisher Scientific (Pittsburgh, Pa.). All other chemicals were obtained from Sigma Chemical Co. (St. Louis, Mo.). Osmolarities of solutions were measured using the Advance DigiMatic Osmometer Model 3D II (Advanced Instruments Inc., Mass.).
The UC11-MG astrocytoma cells were cultured in 75 ml vented flasks at 37° C. inside a humidified incubator in 5% CO2 /95% air. The cells were grown in RPMI Medium 1640 supplemented with 10% fetal bovine serum and […] gentamicin. At approximately 90% confluence, the cells were detached and suspended using a 0.0625% trypsin solution in Buffer A (137 mM NaCl, 5.37 mM KCl, 5.55 mM glucose, 4.17 mM NaHCO3, and 0.54 mM EDTA disodium salt, pH 7.4). The cells were then plated onto 6-well tissue culture plates at a seeding ratio of 4 plates per flask and 4 ml of cell-media suspension per well. The plated cells were used in experiments the next day at approximately 90% confluence. Plates that appeared to be more than 95% confluent were not used, because higher levels of confluence led to uncontrollable differentials in exposure of the cells to culture media and labelled aspartate. All tests were performed in triplicate. All media collections were done at 5 minute intervals, using pipettes, and were followed by promptly loading fresh buffer into each well before any drying occurred. All buffer samples collected in this manner were loaded into scintillation vials, mixed with 5 ml scintillation fluid, and counted for 1 minute in a scintillation counter (Beckman LS8000, Fullerton, Calif.).
Prior to D-aspartate exposure, the wells were washed three times under sterile conditions with 3 ml of 37° C. Buffer B (122 mM NaCl, 3.3 mM KCl, 1.2 mM CaCl2, 0.4 mM MgSO4, 1.2 mM KH2 PO4, 25 mM Hepes, 10 mM glucose, pH 7.4).
The cells were then loaded with 0.5 μCi/ml of D-aspartate, and incubated at 37° C. for 30 min. Cells were then washed four times with Buffer B, and the last washing fluid was left on the cells. The plates were then placed on an orbital shaker and maintained at 37° C.
Baseline aspartate release levels (prior to drug treatment) were determined by incubating the cells with normal Buffer B (285 mOsm) for 15 minutes, while buffer was collected every 5 minutes.
After the buffer was collected from a well at the 15 minute mark, the next set of normal Buffer B added to that well contained a test compound at a known concentration; each compound was tested over a range of concentrations. Cells were then incubated for two 5 minute intervals with solutions of test compounds in normal Buffer B. In some tests which used buffers containing relatively high concentrations of a test drug with limited solubility in water, DMSO was added to the mixture to increase the solubility of the compound in water.
Beginning at the 25-minute mark, the cells were stimulated to begin releasing aspartate by loading a well with hypo-osmotic buffer, prepared by diluting Buffer B with an equal volume of distilled and deionized H2 O, resulting in an osmolarity of about 145 mOsm. This hypo-osmoticsolution caused the cells to begin taking in excess water, to try to reestablish the normal osmotic gradients that exist across the cell membranes. The water-induced swelling and stress then began to induce release of aspartate by the cells, and the amount of aspartate released by the swollen astrocyte cells was measured by removing the buffer every 5 minutes and testing it in a scintillation counter.

CCC[C@]12CCC(=O)C=C1c1c(cc(OCC3=NCCO3)c(Cl)c1Cl)C2 [GERI-E7, R(+)-2-[[(5,6-dichloro-2,3,9,9a-tetrahydro-3-oxo-9a-propyl-1H-fluoren-7-yl)-oxy]methyl]oxazoline]
pIC50 (Homo sapiens, UC11MG, hypo-osmotic stress, about 145 mOsm, AUC-based, read-out: IC50 value (suppression of excitotoxin / D-aspartate release by stressed astrocyte cells)): 5.07 | Comparative potency (relative to L-644,711 (100% = benchmark)): 3,100%

— patent US6251898A, “Medical use of fluorenone derivatives for treating and preventing brain and spinal injury” (Questcor Pharmaceuticals, Inc., priority 1999, dated 2001)
